Patent US20060069132A1, “Azolecarboxamide herbicides” (priority 2004, published 2006)

Tests used:
large crabgrass [1] = test: Test A pre-/postemergence herbicide test; format: in vivo, Digitaria sanguinalis; conditions: for Plant response rating, Crabgrass, Large: Postemergence; for Crabgrass, Large plant response rating: Preemergence
Method in brief: (§1)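 Seeds sown in sandy loam received a preemergence directed soil spray of compound in non-phytotoxic solvent with surfactant; postemergence plants (2–10 cm, one- to two-leaf stage) were sprayed to runoff at the same time. After ~10 days in greenhouse, injury was rated visually versus untreated controls (0 = no effect, 100 = complete control).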

Surinam grass = test: Test B pre-/postemergence herbicide test; format: in vivo, Urochloa decumbens
Method in brief: (§2)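 Flooded paddy rice and barnyardgrass were treated at the 2-leaf stage; upland plantings received compound either on sown seed or on 1- to 4-leaf seedlings. All were kept 13–15 days in a greenhouse and scored visually, 0–100, relative to untreated plants.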

redroot pigweed = test: Test A pre-/postemergence herbicide test; format: in vivo, Amaranthus retroflexus; conditions: for Plant response rating, Pigweed: Postemergence; for Pigweed plant response rating: Preemergence
Method in brief: as §1

corn = test: Test B pre-/postemergence herbicide test; format: in vivo, Zea mays
Method in brief: as §2

velvetleaf [2] = test: Test A pre-/postemergence herbicide test; format: in vivo, Abutilon theophrasti; conditions: for Velvetleaf plant response rating: Preemergence, visual rating, 0 to 100 scale (0 no effect, 100 complete control)
Method in brief: as §1

rice [3] = test: Test B pre-/postemergence herbicide test; format: in vivo, Oryza sativa; conditions: preemergence, 125 g ai/ha; 0 to 100 scale, 0 is no effect, 100 is complete control
Method in brief: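 Evaluation is visual, comparing treated with control plants on a scale where 0 means no effect and 100 means full control. Treatments were preemergence, or postemergence on seedlings 2–18 cm tall, and held 13–15 days in the greenhouse.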

large crabgrass [4] = test: Test B pre-/postemergence herbicide test; format: in vivo, Digitaria sanguinalis
Method in brief: as §2

velvetleaf [5] = test: Test B pre-/postemergence herbicide test; format: in vivo, Abutilon theophrasti
Method in brief: as §2

morningglory [6] = test: Test A pre-/postemergence herbicide test; format: in vivo, Ipomoea spp.; conditions: for Plant response rating, Morningglory: Postemergence; for Morningglory plant response rating: Preemergence
Method in brief: as §1

barnyardgrass [7] = test: Test A pre-/postemergence herbicide test; format: in vivo, Echinochloa crus-galli; conditions: for Plant response rating, Barnyardgrass: Postemergence; for Barnyardgrass plant response rating: Preemergence
Method in brief: as §1

ducksalad = test: Test B flooded paddy test; format: in vivo, Heteranthera limosa; conditions: 1000 g ai/ha, visual rating, scale 0 to 100 (0 no effect, 100 complete control), 13 to 15 days
Method in brief: (§3)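 Greenhouse test; postemergence application to plants at 1–4 leaves (2–18 cm); paddy species at 2 leaves; evaluated visually vs controls at 13–15 days; scale 0–100 (100 = complete control).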

wheat = test: Test B postemergence herbicide test; format: in vivo, Triticum aestivum; design: key to Wheat plant response rating: 0 = no effect, 100 = complete control; conditions: scale 0 (no effect) to 100 (complete control)
Method in brief: (§4)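 Postemergence plants were sprayed with formulated test chemicals at 2 to 18 cm height (1- to 4-leaf stage); paddy species were grown to the 2-leaf stage. After 13 to 15 days in a greenhouse, injury was rated visually against untreated controls on a 0–100 scale (0 = no effect, 100 = complete control).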

barnyardgrass [8] = test: Test B pre-/postemergence herbicide test; format: in vivo, Echinochloa crus-galli
Method in brief: (§5)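 Greenhouse pot assay with simultaneous preemergence (treated seed) and postemergence (2–18 cm seedlings) applications of surfactant-containing, non-phytotoxic solvent formulations. Response scored visually 13–15 days later on a 0–100 scale, 100 meaning complete control.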

pigweed = test: Test B pre-/postemergence herbicide test; format: in vivo, Amaranthus retroflexus
Method in brief: as §2

wild oat = test: Test B postemergence herbicide test; format: in vivo, Avena fatua; conditions: scale 0 (no effect) to 100 (complete control)
Method in brief: as §4

cocklebur = test: Test B pre-/postemergence herbicide test; format: in vivo, Xanthium strumarium
Method in brief: as §5

morningglory [9] = test: Test B pre-/postemergence herbicide test; format: in vivo, Ipomoea coccinea
Method in brief: as §5

blackgrass = test: Test B postemergence herbicide test; format: in vivo, Alopecurus myosuroides; conditions: scale 0 (no effect) to 100 (complete control)
Method in brief: as §3

giant foxtail [10] = test: Test A pre-/postemergence herbicide test; format: in vivo, Setaria faberi; conditions: for Plant response rating, Foxtail, Giant: Postemergence; for Foxtail, Giant plant response rating: Preemergence
Method in brief: as §1

barnyardgrass [11] = test: Test B flooded paddy test; format: in vivo, Echinochloa crus-galli; conditions: 1000 g ai/ha, visual rating, scale 0 to 100 (0 no effect, 100 complete control), 13 to 15 days
Method in brief: as §3

lambsquarters = test: Test B pre-/postemergence herbicide test; format: in vivo, Chenopodium album
Method in brief: as §2

rice [12] = test: Test B flooded paddy test; format: in vivo, Oryza sativa; conditions: 1000 g ai/ha, visual rating, scale 0 to 100 (0 no effect, 100 complete control), 13 to 15 days
Method in brief: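 After treating 2-leaf paddy plants or 2–18 cm postemergence plants (1 to 4 leaves) with formulated chemical, researchers kept them in a greenhouse for 13–15 days. Effects were judged visually versus controls: 0 indicates none, 100 total control.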

[13] = tested on: small flower umbrella sedge; test: Test B flooded paddy test; format: in vivo, Cyperus difformis; conditions: 1000 g ai/ha, visual rating, scale 0 to 100 (0 no effect, 100 complete control), 13 to 15 days
Method in brief: as §3

giant foxtail [14] = test: Test B pre-/postemergence herbicide test; format: in vivo, Setaria faberi
Method in brief: as §2

[15] = 500 g ai/ha, 0 to 100 scale, 0 no effect, 100 complete control
[16] = 2000 g ai/ha, 0 to 100 scale, 0 no effect, 100 complete control
[17] = 500 g ai/ha, visual rating, 0 to 100 scale (0 no effect, 100 complete control)
[18] = Postemergence, 500 g ai/ha, visual rating after 13 to 15 days, scale 0 (no effect) to 100 (complete control)
[19] = postemergence, 125 g ai/ha, visual rating, scale 0 (no effect) to 100 (complete control)
[20] = preemergence, 125 g ai/ha, 0 to 100 scale, 0 is no effect, 100 is complete control
[21] = Preemergence, 500 g ai/ha, scale 0 to 100
[22] = Postemergence, 500 g ai/ha, visual rating after 13 to 15 days
[23] = postemergence, 125 g ai/ha, visual rating

Which “Plant response rating, Crabgrass, Large” value (large crabgrass [1]; [15]) does the source give for CCn1nc(C(C)(C)C)cc1C(=O)Nc1cc(C(=O)OC(C)(C)C)ccc1F [Compound 71] here?
Its value is 0.

What about the “Plant response rating, Crabgrass, Large” value (large crabgrass [1]; [16]) of the same compound?
Its value is 0.

What about the “Crabgrass, Large plant response rating” value (large crabgrass [1]; [17]) of the same compound?
The value was 0.

What about the “Crabgrass, Large plant response rating” value (large crabgrass [1]; [16]) of the same compound?
The value was 0.

What about the “Plant response rating, Surinam Grass” value (Surinam grass; [18]) of the same compound?
Its value is 10.

What about the “Surinam Grass plant response rating” value (Surinam grass; [19]) of the same compound?
Its value is 0.

And the “Plant response rating, Surinam Grass” value (Surinam grass; [20])?
Its value is 0.

And the “Plant response rating, Pigweed” value (redroot pigweed; [15])?
Its value is 0.

And the “Plant response rating, Pigweed” value (redroot pigweed; [16])?
The value was 0.

What about the “Pigweed plant response rating” value (redroot pigweed; [17]) of the same compound?
The value was 0.

And the “Pigweed plant response rating” value (redroot pigweed; [16])?
Its value is 0.

And the “Plant response rating, Corn” value (corn; [18])?
The value was 10.

What about the “Corn plant response rating” value (corn; [21]) of the same compound?
Its value is 0.

What about the “Corn plant response rating” value (corn; [19]) of the same compound?
The value was 0.

And the “Plant response rating, Corn” value (corn; [20])?
The value was 0.

What about the “Plant response rating, Velvetleaf” value (velvetleaf [2]; Postemergence, 2000 g ai/ha, 0 to 100 scale, 0 no effect, 100 complete control) of the same compound?
Its value is 0.

What about the “Velvetleaf plant response rating” value (velvetleaf [2]; 500 g ai/ha) of the same compound?
The value was 0.

And the “Velvetleaf plant response rating” value (velvetleaf [2]; 2000 g ai/ha)?
Its value is 0.

And the “Plant response rating, Rice” value (rice [3])?
The value was 0.

And the “Plant response rating, Crabgrass, Large” value (large crabgrass [4]; [18])?
Its value is 10.

What about the “Crabgrass, Large plant response rating” value (large crabgrass [4]; [21]) of the same compound?
Its value is 0.

And the “Crabgrass, Large plant response rating” value (large crabgrass [4]; [19])?
Its value is 0.

And the “Plant response rating, Crabgrass, Large” value (large crabgrass [4]; [20])?
Its value is 0.

What about the “Plant response rating, Velvetleaf” value (velvetleaf [5]; [18]) of the same compound?
Its value is 0.

And the “Velvetleaf plant response rating” value (velvetleaf [5]; [19])?
The value was 0.

What about the “Plant response rating, Velvetleaf” value (velvetleaf [5]; [20]) of the same compound?
Its value is 0.

What about the “Plant response rating, Morningglory” value (morningglory [6]; [15]) of the same compound?
Its value is 0.

What about the “Plant response rating, Morningglory” value (morningglory [6]; [16]) of the same compound?
The value was 0.

What about the “Morningglory plant response rating” value (morningglory [6]; [17]) of the same compound?
The value was 0.

What about the “Morningglory plant response rating” value (morningglory [6]; [16]) of the same compound?
Its value is 0.

What about the “Plant response rating, Barnyardgrass” value (barnyardgrass [7]; [15]) of the same compound?
Its value is 0.

And the “Plant response rating, Barnyardgrass” value (barnyardgrass [7]; [16])?
Its value is 0.

And the “Barnyardgrass plant response rating” value (barnyardgrass [7]; [17])?
The value was 0.

What about the “Barnyardgrass plant response rating” value (barnyardgrass [7]; [16]) of the same compound?
Its value is 0.

What about the “Ducksalad plant response rating” value (ducksalad) of the same compound?
The value was 0.

And the “Plant response rating, Wheat” value (wheat; [22])?
The value was 0.

And the “Wheat plant response rating” value (wheat; [23])?
Its value is 0.

And the “Plant response rating, Barnyardgrass” value (barnyardgrass [8]; [18])?
Its value is 10.

And the “Barnyardgrass plant response rating” value (barnyardgrass [8]; [21])?
The value was 0.

And the “Barnyardgrass plant response rating” value (barnyardgrass [8]; [19])?
Its value is 0.

And the “Plant response rating, Barnyardgrass” value (barnyardgrass [8]; [20])?
Its value is 0.

What about the “Plant response rating, Pigweed” value (pigweed; [18]) of the same compound?
Its value is 20.

And the “Pigweed plant response rating” value (pigweed; [19])?
Its value is 0.

And the “Plant response rating, Pigweed” value (pigweed; [20])?
The value was 0.

And the “Plant response rating, Oat, Wild” value (wild oat; [22])?
The value was 0.

And the “Oat, Wild plant response rating” value (wild oat; [23])?
The value was 0.

What about the “Plant response rating, Cocklebur” value (cocklebur; [18]) of the same compound?
Its value is 0.

And the “Cocklebur plant response rating” value (cocklebur; [21])?
The value was 0.

And the “Cocklebur plant response rating” value (cocklebur; [19])?
The value was 0.

And the “Plant response rating, Cocklebur” value (cocklebur; [20])?
The value was 0.

And the “Plant response rating, Morningglory” value (morningglory [9]; [18])?
Its value is 0.

What about the “Morningglory plant response rating” value (morningglory [9]; [19]) of the same compound?
The value was 0.

And the “Plant response rating, Morningglory” value (morningglory [9]; [20])?
Its value is 0.

What about the “Plant response rating, Blackgrass” value (blackgrass; [22]) of the same compound?
The value was 0.

What about the “Blackgrass plant response rating” value (blackgrass; [23]) of the same compound?
Its value is 0.

What about the “Plant response rating, Foxtail, Giant” value (giant foxtail [10]; [15]) of the same compound?
Its value is 0.

And the “Plant response rating, Foxtail, Giant” value (giant foxtail [10]; [16])?
The value was 0.

What about the “Foxtail, Giant plant response rating” value (giant foxtail [10]; [17]) of the same compound?
The value was 0.

What about the “Foxtail, Giant plant response rating” value (giant foxtail [10]; [16]) of the same compound?
Its value is 0.

And the “Barnyardgrass plant response rating” value (barnyardgrass [11])?
The value was 0.

And the “Plant response rating, Lambsquarters” value (lambsquarters; [18])?
Its value is 20.

What about the “Lambsquarters plant response rating” value (lambsquarters; [19]) of the same compound?
The value was 0.

What about the “Plant response rating, Lambsquarters” value (lambsquarters; [20]) of the same compound?
Its value is 0.

And the “Rice plant response rating” value (rice [12])?
The value was 0.

What about the “Sedge, Umbrella plant response rating” value [13] of the same compound?
Its value is 0.

And the “Plant response rating, Foxtail, Giant” value (giant foxtail [14]; [18])?
Its value is 10.

What about the “Foxtail, Giant plant response rating” value (giant foxtail [14]; [21]) of the same compound?
The value was 0.

And the “Foxtail, Giant plant response rating” value (giant foxtail [14]; [19])?
The value was 0.

What about the “Plant response rating, Foxtail, Giant” value (giant foxtail [14]; [20]) of the same compound?
Its value is 0.
